Legend:
Format in all cases: biochemical
Cathepsin S = Cathepsin S (Homo sapiens, UniProt P25774); assay: Cathepsin S inhibition assay (fluorogenic peptide substrate); conditions: Cathepsin S inhibition constant; pH5.5; read-out: Ki Cat. S
Source text: “Inhibition constant”, Ki, is the dissociation constant of the enzyme-inhibitor complex, or the reciprocal of the binding affinity of the inhibitor to the enzyme. For classical inhibition the value of Ki is much greater than the enzyme concentration and the Ki can be measured by monitoring the rate of reaction for a competitive substrate at multiple inhibitor concentrations. The inhibited rates are then fit by nonlinear regression to the following equation: […]
The assumption being made for the classical inhibition described above is that the free inhibitor concentration is equal to the total inhibitor concentration. For inhibitors that have Ki's that are approximately equal to the enzyme concentration [E], the assumption that the free inhibitor concentration is equal to the total inhibitor concentration is no longer valid and an alternative equation has to be fit for determination of the apparent inhibition constant, Ki^app using described methods (Kuzmic, P., K. C. Elrod, et al., Anal Biochem 2000, 286(1), 45-50):
(§1) The optimal substrate for cathepsin S, acetyl-histidine-proline-valine-lysine-amino carbamoyl coumarin, was identified from screening a combinatorial library of fluorogenic peptide substrates (Harris, J. L., B. J. Backes, et al., Proc Natl Acad Sci U S A 2000, 97(14), 7754-9). Kinetic measurements are performed in a total reaction volume of 30 μl in 384-well microtiter plates. Cathepsin S, at a final concentration of 0.3-3 nM (active site), is incubated with the compounds at twelve varying concentrations in a buffer containing 100 mM NaAc (pH5.5), 1 mM EDTA, 100 mM NaCl, 0.01% Brij-35 for 20 minutes at room temperature. Control reactions in the absence of inhibitor are performed in replicates of 24. The reactions are initiated by adding the substrate, acetyl-histidine-proline-valine-lysine-amino carbamoyl coumarin, to a final concentration of 50 μM. The rate of substrate hydrolysis is measured by monitoring the increase in fluorescence at an excitation wavelength of 380 nm and an emission wavelength of 450 nm that results from cleavage of the aniline bond in the substrate by the enzyme. The apparent inhibition constants for the compounds are determined from the enzyme progress curves (Kuzmic, P., K. C. Elrod, et al., Anal Biochem 2000, 286(1), 45-50) and are then used to calculate the inhibition constants for competitive inhibitors.

Cathepsin B = Cathepsin B (Homo sapiens, UniProt P07858); assay: Cathepsin B inhibition assay, selectivity for cathepsin S over cathepsin B; conditions: ratio of cathepsin B inhibition constant to cathepsin S inhibition constant
Protocol: as §1, with “cathepsin B,” for “cathepsin S,”, “Sci US” for “Sci U S”, “Cathepsin B,” for “Cathepsin S,”, “of 1.5” for “of 0.3-3”, “of 10” for “of 50”
(§2) Selectivity for cathepsin S in the presence of cathepsin isozymes was determined by the ratio of the cathepsin isozyme inhibition constant of a compound of the present invention to the cathepsin S inhibition constant of the same compound. Preferred compounds of the present invention selective for cathepsin S have ratios of greater than 10. More preferred compounds of the present invention selective for cathepsin S have ratios of greater than 100. Most preferred compounds of the present invention selective for cathepsin S have ratios of greater than 1000.

Cathepsin K = target: T1, Cathepsin K (Homo sapiens, UniProt P43235); assay: Cathepsin K inhibition assay, selectivity for cathepsin S over cathepsin K; conditions: ratio of cathepsin K inhibition constant to cathepsin S inhibition constant
T1 sequence (P43235 115-329): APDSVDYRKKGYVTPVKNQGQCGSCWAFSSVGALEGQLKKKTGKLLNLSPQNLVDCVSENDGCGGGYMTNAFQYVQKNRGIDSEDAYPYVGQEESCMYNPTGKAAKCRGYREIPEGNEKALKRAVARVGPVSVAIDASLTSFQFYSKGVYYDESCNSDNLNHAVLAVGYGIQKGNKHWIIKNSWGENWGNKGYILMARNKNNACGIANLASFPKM
Protocol: as §1, with “cathepsin K, acetyl-lysine-histidine-proline-lysine-amino” for “cathepsin S, acetyl-histidine-proline-valine-lysine-amino”, “Sci USA” for “Sci U S A”, “Cathepsin K,” for “Cathepsin S,”, “of 3.5” for “of 0.3-3”, “substrate, acetyl-lysine-histidine-proline-lysine-amino” for “substrate, acetyl-histidine-proline-valine-lysine-amino”, “of 40” for “of 50”
as §2

Cathepsin L = Cathepsin L (Homo sapiens, UniProt P07711); assay: Cathepsin L inhibition assay, selectivity for cathepsin S over cathepsin L; conditions: ratio of cathepsin L inhibition constant to cathepsin S inhibition constant
Protocol: The optimal substrate for cathepsin L, acetyl-histidine-lysine-phenylalanine-lysine-amino carbamoyl coumarin, was identified from screening a combinatorial library of fluorogenic peptide substrates (Harris, J. L., B. J. Backes, et al.; Proc Natl Acad Sci USA 2000, 97(14), 7754-9). Kinetic measurements are performed in a total reaction volume of 30 μl in 384-well microtiter plates. Cathepsin L, at a final concentration of 0.1 nM (active site), is incubated with the compounds at twelve varying concentrations in a buffer containing 100 mM NaAc (pH5.5), 1 mM EDTA, 100 mM NaCl, 0.01% Brij-35 for 20 minutes at room temperature. Control reactions in the absence of inhibitor are performed in replicates of 24. The reactions are initiated by adding the substrate, acetyl-histidine-lysine-phenylalanine-lysine-amino carbamoyl coumarin, to a final concentration of 20 μM. The rate of substrate hydrolysis is measured by monitoring the increase in fluorescence at an excitation wavelength of 380 nm and an emission wavelength of 450 nm that results from cleavage of the aniline bond in the substrate by the enzyme. The apparent inhibition constants for the compounds are determined from the enzyme progress curves (Kuzmic, P., K. C. Elrod, et al., Anal Biochem 2000, 286(1), 45-50) and are then used to calculate the inhibition constants for competitive inhibitors.
as §2

Sequence of Cathepsin S (P25774 115-331, species assumed): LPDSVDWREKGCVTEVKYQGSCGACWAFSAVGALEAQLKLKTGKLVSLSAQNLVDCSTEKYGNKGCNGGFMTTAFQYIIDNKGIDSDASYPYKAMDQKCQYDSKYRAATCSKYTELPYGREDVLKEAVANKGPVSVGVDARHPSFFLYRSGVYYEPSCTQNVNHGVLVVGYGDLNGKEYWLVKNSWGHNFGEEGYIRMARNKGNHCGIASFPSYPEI
Sequence of Cathepsin L (P07711 114-333, species assumed): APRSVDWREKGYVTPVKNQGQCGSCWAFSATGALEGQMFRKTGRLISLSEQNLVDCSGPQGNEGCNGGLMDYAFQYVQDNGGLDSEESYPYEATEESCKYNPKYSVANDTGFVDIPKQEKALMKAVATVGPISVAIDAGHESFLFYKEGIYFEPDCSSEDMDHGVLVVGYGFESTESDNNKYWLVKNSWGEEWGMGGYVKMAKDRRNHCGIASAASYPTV

Structure (SMILES)	Ki (Cathepsin S) [nM]	Selectivity for Cat. S over Cat. B (Cathepsin B)	Selectivity for Cat. S over Cat. K (Cathepsin K)	Selectivity for Cat. S over Cat. L (Cathepsin L)
O=C1C[C@H](NC(=O)[C@H](CC2CCCC2)NC(=O)OC2CCOCC2)C(O)O1 (stereo partly drawn) [Example 20, (3S)-(3-Cyclopentyl-(2S)-(tetrahydro-pyran-4-yloxycarbonylamino)-propionylamino)-4-oxo-butyric acid]	< 100	+++ (+++, >1000)	++ (++, >100)	++ (++, >100)
O=C1C[C@H](NC(=O)[C@H](CC2CCCCC2)NC(=O)c2ccc(-c3cccc(F)c3)o2)C(O)O1 (mixture of isomers) [Example 15, (3S)-(3-Cyclohexyl-(2S)-{[5-(3-fluoro-phenyl)-furan-2-carbonyl]-amino}-propionylamino)-4-oxo-butyric acid]	< 100	+++ (+++, >1000)	++ (++, >100)	++ (++, >100)
CC(C)(C)C[C@H](NC(=O)C1CC1)C(=O)N[C@H]1CC(=O)OC1O (stereo partly drawn) [Example 22, (3S)-((2S)-(cyclopropylcarbonylamino)-4,4-dimethyl-pentanoylamino)-4-oxo-butyric acid]	< 100	+++ (+++, >1000)	+ (+, >10)	+++ (+++, >1000)
N#Cc1cccc(C(=O)N[C@@H](CC2CCCC2)C(=O)N[C@H]2CC(=O)OC2O)c1 (stereo partly drawn) [Example 18, (3S)-((2S)-(3-cyanophenyl-carbonylamino)-3-cyclopentyl-propionylamino)-4-oxo-butyric acid]	< 100	+++ (+++, >1000)	++ (++, >100)	+ (+, >10)
O=C1C[C@H](NC(=O)[C@H](CC2CCCC2)NC(=O)C2CC2)C(O)O1 (stereo partly drawn) [Example 19, (3S)-(3-Cyclopentyl-(2S)-(cyclopropylcarbonylamino)-propionylamino)-4-oxo-butyric acid]	< 100	+++ (+++, >1000)	++ (++, >100)	+++ (+++, >1000)
O=C1C[C@H](NC(=O)[C@H](CC2CC2)NC(=O)C2CC2)C(O)O1 (stereo partly drawn) [Example 21, (3S)-(3-Cyclopropyl-(2S)-(cyclopropylcarbonylamino)-propionylamino)-4-oxo-butyric acid]	< 100	++ (++, >100)	+ (+, >10)	++ (++, >100)
O=C1C[C@H](NC(=O)[C@H](CC2CCCC2)NC(=O)c2cccc(C(F)(F)F)c2)C(O)O1 (stereo partly drawn) [Example 24, (3S)-(3-Cyclopentyl-(2S)-(3-trifluoromethylphenyl-carbonylamino)-propionylamino)-4-oxo-butyric acid]	< 100	+++ (+++, >1000)	++ (++, >100)	+ (+, >10)
O=C1C[C@H](NC(=O)[C@H](CC2CCCCC2)NC(=O)OCc2ccccc2)C(OCc2ccccc2)O1 (stereo partly drawn) [Example 11, (3S)-[(2S)-benzyloxycarbonylamino-3-cycohexyl-propionylamino]-2-benzyloxy-5-oxo-tetrahydrofuran]	< 100	+ (+, >10)	+ (+, >10)	–
CCOC1OC(=O)C[C@@H]1NC(=O)[C@H](CC1CCCC1)NC(=O)c1ccc(-c2cccc(F)c2)o1 (stereo partly drawn) [Example 12, (3S)-[3-Cyclopentyl-(2S)-{[5-(3-fluoro-phenyl)-furan-2-carbonyl]-amino}propionylamino]-2-ethoxy-5-oxo-tetrahydrofuran]	< 100	++ (++, >100)	+ (+, >10)	++ (++, >100)
CCO[C@@H]1OC(=O)C[C@@H]1NC(=O)[C@H](CC(C)(C)C)NC(=O)OC(C)(C)C [Example 13, (3S)-[(2S)-t-butoxycarbonylamino-4,4-dimethyl-pentanoylamino]-(2R)-ethoxy-5-oxo-tetrahydrofuran]	< 1000	++ (++, >100)	–	+ (+, >10)

Source: patent US7297714B2, “Inhibitors of cathepsin S” (IRM LLC, priority 2003, dated 2007)
